Measurements from patent US10894775B2, “Piperidine derivatives as liver X receptor beta agonists, compositions, and their use” (Merck Sharp & Dohme Corp., priority 2016, dated 2021).
Where two headings read alike, the source gives them in different places.

Experiments:
[1] = target: T1, glutathione-S-transferase (GST) tagged LXRbeta LBD (ligand binding domain) (Homo sapiens, UniProt P55055); experiment: LanthaScreen TR-FRET Liver X Receptor Coactivator Assay, LXR beta; type: biochemical; conditions: for Emax: read-out: LXR beta actiivty at max dose (%); for EC50: potency (Inflection Point) of compound-induced co-activator recruitment, TR-FRET
T1 construct: purchased Invitrogen pv4658.pps
T1 sequence (P55055 222-460 limits assumed): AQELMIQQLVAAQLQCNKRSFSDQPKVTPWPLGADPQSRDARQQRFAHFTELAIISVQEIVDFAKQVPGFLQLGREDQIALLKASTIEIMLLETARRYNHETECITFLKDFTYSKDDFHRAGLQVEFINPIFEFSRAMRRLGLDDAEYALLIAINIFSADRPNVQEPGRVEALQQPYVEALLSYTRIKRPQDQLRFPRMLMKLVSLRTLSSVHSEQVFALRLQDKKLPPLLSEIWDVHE
Method: (§1) While running the LanthaScreen™ TR-FRET Liver X Receptor Coactivator Assay, LXR alpha-LBD or LXR beta-LBD was added to ligand test compounds followed by addition of a mixture of a fluorescein-labelled coactivator peptide and terbium-conjugated anti-GST antibody. After an incubation period at room temperature, TR-FRET (time-resolved fluorescence resonance energy transfer) was measured using a filter-based instrument capable of TR-FRET, e.g. PerkinElmer Envision.

[2] = target: T2, glutathione-S-transferase (GST) tagged LXRalpha LBD (ligand binding domain) (Homo sapiens, UniProt Q13133); experiment: LanthaScreen TR-FRET Liver X Receptor Coactivator Assay, LXR alpha; type: biochemical; conditions: for Emax: read-out: LXR alpha actiivty at max dose (%); for LXR alpha IP (nM) / EC50: potency (Inflection Point) of compound-induced co-activator recruitment, TR-FRET
T2 construct: purchased Invitrogen pv4655
T2 sequence (Q13133 209-447 limits assumed): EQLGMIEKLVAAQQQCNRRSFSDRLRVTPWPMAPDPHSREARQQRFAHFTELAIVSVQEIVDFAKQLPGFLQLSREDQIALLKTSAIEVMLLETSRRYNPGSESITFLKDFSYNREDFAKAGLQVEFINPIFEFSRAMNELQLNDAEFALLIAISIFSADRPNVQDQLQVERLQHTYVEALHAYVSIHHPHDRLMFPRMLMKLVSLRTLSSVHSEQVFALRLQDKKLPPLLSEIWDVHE
Method: as §1

[3] = efficacy (Emax) in relation to reference dual agonist T0901317

SMILES | Emax [1, 3] [%] | EC50 ([1]; read-out: LXR beta IP) [nM] | Emax [2, 3] [%] | LXR alpha IP (nM) [2] | LXR beta actiivty at max dose (%) [1, 3] [%] | LXR alpha actiivty at max dose (%) [2, 3] [%] | EC50 ([2]; read-out: LXR alpha IP) [nM] | EC50 ([1]; LXR beta IP (nM)) [nM] | Emax [1] [%] | Emax [2] [%] | EC50 ([2]; LXR alpha IP (nM)) [nM]
CNC(=O)c1ccc(NCCCCC2CCN(C(=O)C(O)(c3cccc(OC(F)(F)F)c3)C(F)(F)F)CC2)cc1Cl (single isomer, unassigned) [Example 1-9, (S or R)-2-chloro-N-methyl-4-(4-(1-(3,3,3-trifluoro-2-hydroxy-2-(3-(trifluoromethoxy)phenyl)propanoyl)piperidin-4-yl)butylamino)benzamide] | 62 | 17 | 13 | No IP |  |  |  |  |  |  | 
CN(C)C(=O)c1ccc(CCCCCC2CCN(C(=O)C(O)(c3ccccc3)C(F)(F)F)CC2)cc1Cl (single isomer, unassigned) [Example 15-9, (S or R)-2-chloro-N,N-dimethyl-4-(5-(1-(3,3,3-trifluoro-2-hydroxy-2-phenylpropanoyl)piperidin-4-yl)pentyl)benzamide] |  | 240 |  | No IP | 84 | 4 |  |  |  |  | 
COc1cccc([C@@](O)(C(=O)N2CCC([C@H]3C[C@H]3CSc3ccc(C(=O)N(C)C)c(Cl)c3)CC2)C(F)(F)F)c1 (single isomer, unassigned) [Example 23-1, 2-chloro-N,N-dimethyl-4-(((1R,2R or 1S,2S)-2-(1-((R or S)-3,3,3-trifluoro-2-hydroxy-2-(3-methoxyphenyl)propanoyl)piperidin-4-yl)cyclopropyl)methylthio)benzamide] | 118 | 27 | 24 |  |  |  | 946 |  |  |  | 
CN(C)C(=O)c1ccc([S+]([O-])C2CCC3(CC2)CCN(C(=O)C(O)(c2cc(Cl)cc(Cl)c2)C(F)(F)F)CC3)cc1Cl (single isomer, unassigned) [Example 20-1, 2-chloro-4-(3-((R or S)-2-(3,5-dichlorophenyl)-3,3,3-trifluoro-2-hydroxypropanoyl)-3-azaspiro[5.5]undecan-9-ylsulfinyl)-N,N-dimethylbenzamide] |  |  |  | No IP |  |  |  | 938 | 50 | 0 | 
CN(C)C(=O)c1ccc(CCCCC2CCN(C(=O)C(O)(c3ccccc3)C(F)(F)F)CC2)cc1Cl (single isomer, unassigned) [Example 15-3, (S or R)-2-chloro-N,N-dimethyl-4-(4-(1-(3,3,3-trifluoro-2-hydroxy-2-phenylpropanoyl)piperidin-4-yl)butyl)benzamide] |  | 31 |  |  | 116 | 36 | 846 |  |  |  | 
COc1cccc(C(O)(C(=O)N2CCC3(CCC(Nc4ccc(C(=O)N(C)C)c(Cl)c4)CC3)CC2)C(F)(F)F)c1 (single isomer, unassigned) [Example 10-1, 2-chloro-N,N-dimethyl-4-(3-((R or S)-3,3,3-trifluoro-2-hydroxy-2-(3-methoxyphenyl)propanoyl)-3-azaspiro[5.5]undecan-9-ylamino)benzamide] | 54 | 73 | 12 | No IP |  |  |  |  |  |  | 
COc1cccc([C@@](O)(C(=O)N2CCC(CCC[C@H](C)Nc3ccc(C(=O)N(C)C)c(Cl)c3)CC2)C(F)(F)F)c1 (single isomer, unassigned) [Example 4-1, 2-chloro-N,N-dimethyl-4-((S or R)-5-(1-((R or S)-3,3,3-trifluoro-2-hydroxy-2-(3-methoxyphenyl)propanoyl)piperidin-4-yl)pentan-2-ylamino)benzamide] | 71 | 13 | 22 |  |  |  | 734 |  |  |  | 
CNC(=O)c1ccc(NCCC[C@@H]2CC23CCN(C(=O)[C@](O)(C(C)C)C(F)(F)F)CC3)cc1Cl (single isomer, unassigned) [Example 6-9, 2-chloro-4-(3-((R or S)-6-((R or S)-2-hydroxy-3-methyl-2-(trifluoromethyl)butanoyl)-6-azaspiro[2.5]octan-1-yl)propylamino)-N-methylbenzamide] | 60 | 21 | 64 |  |  |  | 869 |  |  |  | 
CN(C)C(=O)c1ccc(N(C)CCC2CC3(CCN(C(=O)C(C)(C)c4ccccc4)CC3)C2)nc1Cl [Example 12-1, 2-chloro-N,N-dimethyl-6-(methyl(2-(7-(2-methyl-2-phenylpropanoyl)-7-azaspiro[3.5]nonan-2-yl)ethyl)amino)nicotinamide] |  | 430 |  | No IP |  |  |  |  | 34 | 5 | 
CN(C)C(=O)c1ccc(S(=O)(=O)CCCCC2CCN(C(=O)C(C)(C)c3ccccc3)CC2)cc1Cl [Example 22-1, 2-chloro-N,N-dimethyl-4-(4-(1-(2-methyl-2-phenylpropanoyl)piperidin-4-yl)butylsulfonyl)benzamide] | 57 | 1990 | 2 | No IP |  |  |  |  |  |  | 
CN(C)C(=O)c1ccc(NCCCCC2CCN(C(=O)C(O)(c3ccccc3)C(F)(F)F)CC2)cc1Cl (single isomer, unassigned) [Example 1-15, (S or R)-2-chloro-N,N-dimethyl-4-(4-(1-(3,3,3-trifluoro-2-hydroxy-2-phenylpropanoyl)piperidin-4-yl)butylamino)benzamide] | 72 | 3 | 43 |  |  |  | 147 |  |  |  | 
COc1cccc(C(O)(C(=O)N2CCC3(CCC(Sc4ccc(C(=O)N(C)C)c(Cl)c4)CC3)CC2)C(F)(F)F)c1 (single isomer, unassigned) [Example 19-1, 2-chloro-N,N-dimethyl-4-(3-((R or S)-3,3,3-trifluoro-2-hydroxy-2-(3-methoxyphenyl)propanoyl)-3-azaspiro[5.5]undecan-9-ylthio)benzamide] |  |  | 23 |  |  |  | 1060 | 58 | 101 |  | 
CN(C)C(=O)c1ccc(CCCC2CCN(C(=O)C(O)(c3ccccc3)C(F)(F)F)CC2)cc1Cl (single isomer, unassigned) [Example 15-1, (R or S)-2-chloro-N,N-dimethyl-4-(3-(1-(3,3,3-trifluoro-2-hydroxy-2-phenylpropanoyl)piperidin-4-yl)propyl)benzamide] |  |  |  |  |  |  |  | 46 | 41 | 19 | 1310
CN(C(=O)c1ccc(NCCC[C@@H]2CC23CCN(C(=O)[C@](O)(c2ccccc2)C(F)(F)F)CC3)cc1Cl)C1CC1 (single isomer, unassigned) [Example 6-6, 2-chloro-N-cyclopropyl-N-methyl-4-(3-((R or S)-6-((R or S)-3,3,3-trifluoro-2-hydroxy-2-phenylpropanoyl)-6-azaspiro[2.5]octan-1-yl)propylamino)benzamide] | 43 | 49 | 0 | No IP |  |  |  |  |  |  | 
COc1cccc([C@@](O)(C(=O)N2CCC3(CC2)C[C@H]3CCCc2ccc(C(=O)N(C)C)c(Cl)c2)C(F)(F)F)c1 (single isomer, unassigned) [Example 17-1, 2-chloro-N,N-dimethyl-4-(3-((R or S)-6-((R or S)-3,3,3-trifluoro-2-hydroxy-2-(3-methoxyphenyl)propanoyl)-6-azaspiro[2.5]octan-1-yl)propyl)benzamide] | 51 | 12 | 0 | No IP |  |  |  |  |  |  | 
CC(CCCC1CCN(C(=O)[C@](O)(c2cccc(Cl)c2)C(F)(F)F)CC1)Nc1ccc(C(=O)N(C)C)c(Cl)c1 (single isomer, unassigned) [Example 4-2, 2-chloro-4-((S or R)-5-(1-((R or S)-2-(3-chlorophenyl)-3,3,3-trifluoro-2-hydroxypropanoyl)piperidin-4-yl)pentan-2-ylamino)-N,N-dimethylbenzamide] | 84 | 7 | 37 |  |  |  | 382 |  |  |  | 
CNC(=O)c1ccc(NCCC[C@@H]2CC23CCN(C(=O)[C@@](O)(C(C)C)C(F)(F)F)CC3)cc1Cl (single isomer, unassigned) [Example 6-8, 2-chloro-4-(3-((R or S)-6-((S or R)-2-hydroxy-3-methyl-2-(trifluoromethyl)butanoyl)-6-azaspiro[2.5]octan-1-yl)propylamino)-N-methylbenzamide] | 91 | 9 | 65 |  |  |  | 829 |  |  |  | 
